This data set concerns traumatic rib fracture patients. Briefly: Retrospective review of traumatic rib fracture patients: intravenous ibuprofen plus narcotics versus narcotics alone. In kind it is in vivo, human.

Consider `CC(C)Cc1ccc(C(C)C(=O)O)cc1` (stereo not drawn) [ibuprofen, 2-(4-isobutylphenyl) propionic acid], for which the “daily narcotic requirement, Treatment Group versus Control Group” value runs as follows: (Day 1 or Day 2) “did not differ”; (each of Days 3 through 7 (p<0.05)) “significantly decreased”. Further, the “complications associated with ibuprofen therapy” value (Treatment group) is “no significant complications”.

(Values after US20130190403A1, “ADMINISTRATION OF INTRAVENOUS IBUPROFEN TO TRAUMA PATIENTS” (Cumberland Pharmaceuticals Inc., priority 2012, published 2013).)
